Here are results for three molecules from paper PMC7772748 (Amino acids, 2020).

Where no end group is shown, it is not given here.

In assay [1] the test system is 3T3L1 mature adipocytes. Briefly: CXCL1 release from differentiated 3T3L1 white adipocytes. The assay is classed as cell-based, mouse. Conditions: 10 nM CRF alone, 24 h, differentiated white 3T3L1 adipocytes, ELISA.
Assay [2] has as its system CRF(1–16)/R1ΔN chimera of CRF1R (HEK 293 cells, transient expression). Conditions: ref Nielsen et al. 2000; cited from earlier work.
Assay [3] deals with RAW 264.7 cells. Briefly: Proliferation assay. The class given is cell-based. Conditions: 1 μM, third day of culture (72 h), MTT; n = 3 experiments.

On to “corticotropin-releasing factor (SEEPPISLDLTFHLLREVLEMARAEQLAQQAHSNRKLMEII; ends and bridges not checked; UniProt P06850 154-194, looked up) [CRF]”, for which the “production of CXCL1 compared to untreated (control) cells” value in assay [1] is “significantly reduced”.
Consider `CCCCN(CC)c1nc(C)nc2c1c(C)c(C)n2-c1c(C)cc(C)cc1C` [antalarmin], for which, in assay [2], the “block of the constitutive activity (activation) of the CRF(1–16)/R1ΔN chimera” value was “blocked”.
Turning to astressin, the “proliferation rate of RAW 264.7 cells compared to vehicle-treated cells” value in assay [3] is “levels similar to those achieved with astressin”. Besides, the “block of the constitutive activity (activation) of the CRF(1–16)/R1ΔN chimera” value in assay [2] is “not blocked”.
